From patent US20230339890A1, “AMINO ALCOHOL COMPOUNDS AND USES THEREOF” (Kineta, Inc., priority 2020, published 2023)

Key:
[1] = target: Recombinant human CYP51A1 (lanosterol-14a-demethylase) (Homo sapiens (Human), UniProt Q16850); experiment: Inhibition of CYP51A1, fluorescent substrate BOMCC; format: biochemical; conditions: recombinant human CYP51A1 coexpressed with CYP reductase in bacterial membranes, 8-point concentration-response, read-out: CYP51 IC50
Excerpt: Method: Recombinant human CYP51A1 (lanosterol-14a-demethylase) enzyme was coexpressed with CYP reductase in bacterial membranes and the fluorescent substrate BOMCC (a nonnatural substrate that causes increases in fluorescence upon CYP51A1-dependent demethylation) was used to obtain 8-point dose concentration-response curves for each compound.

Erg11 = experiment: HPLC analysis of lanosterol and ergosterol in wild-type yeast cultures; format: cell-based; conditions: wild-type yeast treated for eight hours
Protocol: (§1) (FIG. 1A) Structure of the Erg11 inhibitor and anti-fungal, fluconazole. […] A 2-fold serial dilution of fluconazole was applied to TDP-43-expressing yeast for 24 hours prior to analysis. (FIG. 1C) Wild-type yeast cultures were treated with fluconazole for eight hours prior to HPLC analysis for lanosterol and ergosterol. Data are expressed as the area under the curve (AUC) normalized to cell mass based on optical density of cultures at 600 nm.
Fluconazole is an antifungal known to inhibit Erg11, the yeast lanosterol 14-alpha demethylase (FIG. 1B). […] CYP51A1 has also been known as lanosterol 14-alpha demethylase, which describes its function in removing the 14-alpha-methyl group from lanosterol to generate 4,4-dimethylcholesta-8(9), 14, 24-trien-3β-ol, which is a critical step in the cholesterol biosynthetic pathway.

TDP-43-expressing yeast = experiment: Yeast TDP-43 model viability (resazurin-reduction endpoint); format: cell-based; conditions: 2-fold serial dilution applied for 24 hours
Protocol: as §1
The toxic gain of function features of TDP-43 can be faithfully recapitulated in the simple model organism, budding yeast, where the protein also localizes to stress granules. […] The yeast model thus provides a robust cell-based screening platform for small molecules capable of ameliorating toxicity. To validate compounds from such phenotypic screens, it is imperative to test compounds in a mammalian neuronal context. In an effort to develop TDP-43-related mammalian models of neuron loss that occurs in ALS and FTD, primary cultures of rat cortical neurons were transfected with human wild type or Q331K mutant TDP-43. These cells were compared to cells which received an empty expression vector control. […] In the experiments described in this example, this model system is used to interrogate new therapeutic approaches to ameliorate TDP-43 toxicity.
Fluconazole is an antifungal known to inhibit Erg11, the yeast lanosterol 14-alpha demethylase (FIG. 1B). […]

Recombinant human CYP51A1 (lanosterol-14a-demethylase), sequence (Q16850 whole entry): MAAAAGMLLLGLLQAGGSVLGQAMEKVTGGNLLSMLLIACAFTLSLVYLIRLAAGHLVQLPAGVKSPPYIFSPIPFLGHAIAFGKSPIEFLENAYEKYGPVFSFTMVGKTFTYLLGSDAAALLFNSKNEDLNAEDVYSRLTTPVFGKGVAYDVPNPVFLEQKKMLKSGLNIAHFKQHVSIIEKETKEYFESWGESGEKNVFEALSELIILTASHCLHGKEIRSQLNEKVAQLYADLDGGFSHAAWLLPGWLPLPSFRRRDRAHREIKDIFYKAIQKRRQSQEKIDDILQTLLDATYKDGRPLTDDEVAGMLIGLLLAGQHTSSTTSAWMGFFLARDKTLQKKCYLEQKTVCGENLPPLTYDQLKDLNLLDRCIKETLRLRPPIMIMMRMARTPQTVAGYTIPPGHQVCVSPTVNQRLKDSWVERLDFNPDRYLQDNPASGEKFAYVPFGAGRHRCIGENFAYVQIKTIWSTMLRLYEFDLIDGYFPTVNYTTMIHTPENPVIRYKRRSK

IC50 [1] [nM]	SMILES	other results
≤ 100	CCCN(C[C@@H](O)c1cccnc1)C(=O)C1Cc2ccc(Cl)c(Cl)c2C1 (stereo partly drawn) [compound 120, 4,5-dichloro-N-[(2S)-2-hydroxy-2-(3-pyridyl)ethyl]-N-propyl-indane-2-carboxamide]	–
> 1000	CCCN(CC(O)c1ccc(=O)n(C)c1)C(=O)Cc1ccc(Cl)c(Cl)c1 (centres unmarked) [compound 121, 2-(3,4-dichlorophenyl)-N-[2-hydroxy-2-(1-methyl-6-oxo-3-pyridyl)ethyl]-N-propyl-acetamide]	–
> 1000	CCCN(C(=O)Cc1ccc(Cl)c(Cl)c1)C(CO)c1ccc(=O)n(C)c1 (centres unmarked) [compound 122, 2-(3,4-dichlorophenyl)-N-[2-hydroxy-1-(1-methyl-6-oxo-3-pyridyl)ethyl]-N-propyl-acetamide]	–
> 1000	CCCN(CC(O)c1cccnc1)C(=O)Cc1cccnc1 (centres unmarked) [compound 123, N-[2-hydroxy-2-(3-pyridyl)ethyl]-N-propyl-2-(3-pyridyl)acetamide]	–
≤ 100	CCCN(C[C@@H](O)c1cccnc1)C(=O)Cc1cnc(C(F)(F)F)nc1 [compound 124, N-[(2S)-2-hydroxy-2-(3-pyridyl)ethyl]-N-propyl-2-[2-(trifluoromethyl)pyrimidin-5-yl]acetamide]	–
100 to 1000	CCCN(CC(O)c1cncc(F)c1)C(=O)Cc1ccc(Cl)c(Cl)c1 (centres unmarked) [compound 126, 2-(3,4-dichlorophenyl)-N-[2-(5-fluoro-3-pyridyl)-2-hydroxyethyl]-N-propyl-acetamide]	–
> 1000	CCCN(C[C@@H](O)c1cccnc1)C(=O)Cc1ccnc(C(F)(F)F)c1 [compound 127, N-[(2S)-2-hydroxy-2-(3-pyridyl)ethyl]-N-propyl-2-[2-(trifluoromethyl)-4-pyridyl]acetamide]	–
≤ 100	CCCN(C[C@@H](O)c1cccnc1)C(=O)C1Cc2cnc(C(F)(F)F)cc2C1 (stereo partly drawn) [compound 128, N-[(2S)-2-hydroxy-2-(3-pyridyl)ethyl]-N-propyl-3-(trifluoromethyl)-6,7-dihydro-5H-cyclopenta[c]pyridine-6-carboxamide]	–
100 to 1000	CCCN(CC(O)c1cnccn1)C(=O)C1Cc2cc(Cl)c(Cl)cc2C1 (centres unmarked) [compound 129]	–
≤ 100	CCCN(C[C@@H](O)c1cccnc1)C(=O)Cc1cnc(C(C)(C)C)nc1 [compound 130, 2-(2-tert-butylpyrimidin-5-yl)-N-[(2S)-2-hydroxy-2-(3-pyridyl)ethyl]-N-propyl-acetamide]	–
≤ 100	CCCN(C[C@@H](O)c1cccnc1)C(=O)C1Cc2cc(Cl)c(Br)cc2C1 (stereo partly drawn) [compound 131, 5-bromo-6-chloro-N-[(2S)-2-hydroxy-2-(3-pyridyl)ethyl]-N-propyl-indane-2-carboxamide]	–
> 1000	CCCN(C[C@@H](O)c1cccnc1)C(=O)C(C)c1ccc(C(F)(F)F)nc1 (stereo partly drawn) [compound 132, N-[(2S)-2-hydroxy-2-(3-pyridyl)ethyl]-N-propyl-2-[6-(trifluoromethyl)-3-pyridyl]propanamide]	–
100 to 1000	CCCN(C[C@@H](O)c1cccnc1)C(=O)C1Cc2cc(C#N)c(C#N)cc2C1 [compound 133, 5,6-dicyano-N-[(2S)-2-hydroxy-2-(3-pyridyl)ethyl]-N-propyl-indane-2-carboxamide]	–
≤ 100	CCCN(C[C@@H](O)c1cccnc1)C(=O)C1Cc2cc(Cl)c(C#N)cc2C1 (stereo partly drawn) [compound 134, 5-chloro-6-cyano-N-[(2S)-2-hydroxy-2-(3-pyridyl)ethyl]-N-propyl-indane-2-carboxamide]	–
≤ 100	CCCN(C[C@@H](O)c1cccnc1)C(=O)N1Cc2cc(Cl)c(Br)cc2C1 [compound 135, 5-bromo-6-chloro-N-[(2S)-2-hydroxy-2-(3-pyridyl)ethyl]-N-propyl-isoindoline-2-carboxamide]	–
≤ 100	CCCN(CC(O)c1cnccc1N)C(=O)Cc1ccc(C(F)(F)F)nc1 (centres unmarked) [compound 136, N-[2-(4-amino-3-pyridyl)-2-hydroxyethyl]-N-propyl-2-[6-(trifluoromethyl)-3-pyridyl]acetamide]	–
≤ 100	CC(C)(C)OC(=O)N(CCc1ccc2ccccc2c1)CC(O)c1cccnc1 (centres unmarked) [compound 137, Tert-butyl N-[2-hydroxy-2-(3-pyridyl)ethyl]-N-[2-(2-naphthyl)ethyl]carba mate]	–
100 to 1000	CC(C)(C)OC(=O)N(CCc1ccc(Cl)c(Cl)c1)CC(O)c1cccnc1 (centres unmarked) [compound 138, Tert-butyl N-[2-(3,4-dichlorophenyl)ethyl] -N-[2-hydroxy-2-(3-pyridyl)ethyl]carbam ate]	–
≤ 100	CC(C)(C)OC(=O)NCCCCCN(CC(O)c1cccnc1)C(=O)Cc1ccc(Cl)c(Cl)c1 (centres unmarked) [compound 139, tert-butyl N-[5-[[2-(3,4-dichlorophenyl)acetyl]-[2-hydroxy-2-(3-pyridyl)ethyl]amino]pentyl]carbamate]	–
≤ 100	CC(C)(C)OC(=O)NCCCN(C[C@@H](O)c1cccnc1)C(=O)Cc1ccc(C(F)(F)F)nc1 [compound 140, tert-butyl N-[3-[[(2S)-2-hydroxy-2-(3-pyridyl)ethyl]-[2-[6-(trifluoromethyl)-3-pyridyl]acetyl]amino]propyl]carbamate]	–
≤ 100	CC(C)(C)OC(=O)NCCCCCN(C[C@@H](O)c1cccnc1)C(=O)Cc1ccc(C(F)(F)F)nc1 [compound 141, tert-butyl N-[5-[[(2S)-2-hydroxy-2-(3-pyridyl)ethyl]-[2-[6-(trifluoromethyl)-3-pyridyl]acetyl]amino]pentyl]carbamate]	–
≤ 100	CC(C)(C)OC(=O)NCCN(C[C@@H](O)c1cccnc1)C(=O)Cc1ccc(C(F)(F)F)nc1 [compound 143, tert-butyl N-[2-[[(2S)-2-hydroxy-2-(3-pyridyl)ethyl]-[2-[6-(trifluoromethyl)-3-pyridyl]acetyl]amino]ethyl]carbamate]	–
100 to 1000	CC(C)(C)OC(=O)NC1CCC(CN(C[C@@H](O)c2cccnc2)C(=O)Cc2ccc(C(F)(F)F)nc2)CC1 (stereo partly drawn) [compound 145, tert-butyl N-[4-[[[(2S)-2-hydroxy-2-(3-pyridyl)ethyl]-[2-[6-(trifluoromethyl)-3-pyridyl]acetyl]amino]methyl]cyclohexyl] carbamate]	–
≤ 100	CC(C)(C)OC(=O)NC1CCC(CN(C[C@@H](O)c2cccnc2)C(=O)Cc2ccc(C(F)(F)F)nc2)CC1 (stereo partly drawn) [compound 146, tert-butyl N-[4-[[[(2S)-2-hydroxy-2-(3-pyridyl)ethyl]-[2-[6-(trifluoromethyl)-3-pyridyl]acetyl]amino]methyl]cyclohexyl] carbamate]	–
≤ 100	CCCN(C[C@H](O)c1cccnc1)C(=O)Cc1ccc2ccccc2c1 [compound 147, N-[(2R)-2-hydroxy-2-(3-pyridyl)ethyl]-2-(2-naphthyl)-N-propyl-acetamide]	–
–	OC(Cn1cncn1)(Cn1cncn1)c1ccc(F)cc1F [fluconazole]	ergosterol (AUC normalized to cell mass) (Erg11): reduces ergosterol; lanosterol (AUC normalized to cell mass) (Erg11): increase in the Erg11 substrate, lanosterol; viability of TDP-43-expressing yeast (TDP-43-expressing yeast): rescues viability; viability of TDP-43-expressing yeast (TDP-43-expressing yeast; listed as Fluconazole): restored viability
